Laboratory results published in article PMC6017461, “Multi-Target Anti-Alzheimer Activities of Four Prenylated Compounds from Psoralea Fructus” (Molecules : A Journal of Synthetic Chemistry and Natural …, 2018).

Molecular target: T1, amyloid β-peptide 42 (Aβ42) (Homo sapiens, UniProt P05067)
T1 construct: gene APP; synthetic human Aβ42
Experiment: Thioflavin T fluorescence aggregation assay with synthetic Aβ[…], positive control
Type: biochemical

T1 sequence (P05067 672-713 limits assumed): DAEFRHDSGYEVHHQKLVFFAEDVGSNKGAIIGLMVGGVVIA

**Q.** For `COc1cc(/C=C/C(=O)CC(=O)/C=C/c2ccc(O)c(OC)c2)ccc1O` [curcumin], which “Thioflavin T fluorescence aggregation assay with synthetic Aβ42, positive contro” value is on record?
**A.** Its value is “which were comparable to the positive control curcumin”.
